This is an account of results in patent US4681755A, “Delivery device for zero-order release of an active principle into a dissolution fluid and process for its preparation” (Sigma-Tau Industrie Farmaceutiche Riunite S.p.A., priority 1984, dated 1987).

Series [1] can be described thus: In vitro release, USP XXI "paddle" apparatus, distilled water at 37° C. The series is classed as physicochemical. As for the experimental part: "In vitro" experiments were carried out both on (i) the uncoated solid matrix-type reservoirs, and (ii) the finished devices; i.e., on the reservoirs coated both with the release rate-controlling membrane and with the protective membrane loaded with a portion of the active principle which is desired to be immediately available.
To carry out such experiments, a USP XXI "paddle" apparatus was used with distilled water at 37° C. as the dissolution medium.

Series [2] can be described thus: In vitro model, diltiazem release (Example 7; apparatus not restated). The series is classed as physicochemical.
For series [3] the following is noted: Ex. 1 device, healthy volunteer.
Method: A healthy volunteer was administered the same device. The following plasma levels of active principle were detected.
Series [4] is described as follows: In vitro release, USP XXI "paddle" apparatus, distilled water at 37° C. As to conditions: Ex. 2, coated reservoir, no drug in protective membrane. The series is classed as physicochemical.
Setting [5] is: Ex. 1, coated reservoir, drug-loaded protective membrane, 1 h.
The mark [6] stands for this setting: Ex. 1, coated reservoir, drug-loaded protective membrane, 2 h.
The mark [7] stands for this setting: Ex. 1, coated reservoir, drug-loaded protective membrane, 3 h.
Where [8] appears, read: Ex. 1, coated reservoir, drug-loaded protective membrane, 4 h.
[9] abbreviates: Ex. 1, coated reservoir, drug-loaded protective membrane, 5 h.
[10] abbreviates: Ex. 1, coated reservoir, drug-loaded protective membrane, 6 h.
[11] abbreviates: Ex. 1, uncoated solid matrix-type reservoir (100 mg), 30 min.
[12] abbreviates: Ex. 1, uncoated solid matrix-type reservoir (100 mg), 60 min.
[13] abbreviates: Ex. 1, uncoated solid matrix-type reservoir (100 mg), 90 min.
[14] abbreviates: Ex. 1, uncoated solid matrix-type reservoir (100 mg), 120 min.

Where two headings read alike, the source gives them in different places.

For `CC(=O)O[C@H](CC(=O)[O-])C[N+](C)(C)C` [Acetyl L-carnitine, acetyl L-carnitine], the Total drug released is recorded as 60 mg in series [1] (Ex. 3, coated reservoir, no drug in protective membrane, 1 h); 135 mg in series [1] (Ex. 3, coated reservoir, no drug in protective membrane, 2 h); 210 mg in series [1] (Ex. 3, coated reservoir, no drug in protective membrane, 3 h); 280 mg in series [1] (Ex. 3, coated reservoir, no drug in protective membrane, 4 h); 348 mg in series [1] (Ex. 3, coated reservoir, no drug in protective membrane, 5 h); 411 mg in series [1] (Ex. 3, coated reservoir, no drug in protective membrane, 6 h). The Total drug released was 158 mg in series [1] (Ex. 3, uncoated solid matrix-type reservoir (500 mg), 30 min); 242 mg in series [1] (Ex. 3, uncoated solid matrix-type reservoir (500 mg), 60 min); 335 mg in series [1] (Ex. 3, uncoated solid matrix-type reservoir (500 mg), 90 min); 395 mg in series [1] (Ex. 3, uncoated solid matrix-type reservoir (500 mg), 120 min).

Consider `COc1ccc2c(C(=O)c3ccc(Cl)cc3)c(C)n(CC(=O)O)c2c1.NCCCCC(N)C(=O)O` [Clometacin lysinate, clometacin lysinate], for which the Total drug released was 15 mg in series [1] (Ex. 4, coated reservoir, drug-loaded protective membrane, 1 h); 40 mg in series [1] (Ex. 4, coated reservoir, drug-loaded protective membrane, 2 h); 61 mg in series [1] (Ex. 4, coated reservoir, drug-loaded protective membrane, 3 h); 78 mg in series [1] (Ex. 4, coated reservoir, drug-loaded protective membrane, 4 h); 95 mg in series [1] (Ex. 4, coated reservoir, drug-loaded protective membrane, 5 h); 116 mg in series [1] (Ex. 4, coated reservoir, drug-loaded protective membrane, 6 h). Moreover, the Total drug released in series [1] (Ex. 4, uncoated solid matrix-type reservoir (150 mg), 30 min) is recorded as 63 mg; in series [1] (Ex. 4, uncoated solid matrix-type reservoir (150 mg), 60 min), 91 mg; in series [1] (Ex. 4, uncoated solid matrix-type reservoir (150 mg), 90 min), 105 mg; in series [1] (Ex. 4, uncoated solid matrix-type reservoir (150 mg), 120 min) it was 124 mg.

For the molecule `COc1ccc([C@@H]2Sc3ccccc3N(CCN(C)C)C(=O)[C@@H]2OC(C)=O)cc1.Cl` [Diltiazem, diltiazem HCl], the Total drug released in series [2] (Ex. 7, coated reservoir, no drug in protective membrane, 0.5 h) is 14.4 mg; in series [2] (Ex. 7, coated reservoir, no drug in protective membrane, 1 h) it was 29.5 mg; in series [2] (Ex. 7, coated reservoir, no drug in protective membrane, 2 h) it was 67.6 mg; in series [2] (Ex. 7, coated reservoir, no drug in protective membrane, 3 h), 89.9 mg; in series [2] (Ex. 7, coated reservoir, no drug in protective membrane, 4 h) it was 102.3 mg; in series [2] (Ex. 7, uncoated solid matrix-type reservoir (120 mg), 15 min), 40.0 mg. The Total drug released is 57.6 mg in series [2] (Ex. 7, uncoated solid matrix-type reservoir (120 mg), 30 min); 69.6 mg in series [2] (Ex. 7, uncoated solid matrix-type reservoir (120 mg), 45 min); 80.4 mg in series [2] (Ex. 7, uncoated solid matrix-type reservoir (120 mg), 60 min); 85.2 mg in series [2] (Ex. 7, uncoated solid matrix-type reservoir (120 mg), 75 min).

`COc1ccc2c(c1)c(CC(=O)O)c(C)n2C(=O)c1ccc(Cl)cc1.NCCCC[C@H](N)C(=O)O` [Indomethacin lysinate, Lysine salt of indomethacin]: the “Release rate in vitro” value in series [1] (Ex. 1, after release rate-controlling membrane is applied) was “substantially constant through the sixth hour”. For the same molecule, the Rate was determined as 14 mg/h in series [1] (setting [5]); 12.5 mg/h in series [1] (setting [6]); 13.3 mg/h in series [1] (setting [7]); 14.25 mg/h in series [1] (setting [8]); 15.4 mg/h in series [1] (setting [9]); 15.5 mg/h in series [1] (setting [10]). The Rate in series [1] (setting [11]) amounted to 40 mg/h; in series [1] (setting [12]), 54 mg/h; in series [1] (setting [13]), 43 mg/h; in series [1] (setting [14]), 37.5 mg/h. Also, the Total drug released in series [1] (setting [5]) turned out to be 14 mg; in series [1] (setting [6]), 25 mg; in series [1] (setting [7]) it was 40 mg; in series [1] (setting [8]), 57 mg; in series [1] (setting [9]), 77 mg; in series [1] (setting [10]) it was 93 mg. Further, the Total drug released is listed as 20 mg in series [1] (setting [11]), 54 mg in series [1] (setting [12]), 65 mg in series [1] (setting [13]) and 75 mg in series [1] (setting [14]). For the same molecule, the “Time in which drug is wholly released” value in series [1] (Ex. 1, uncoated solid matrix-type reservoir) is on record as “about 5 hours”. The “Plasma level of active principle” value in series [3] (1 h) is 1600 ng/mL; in series [3] (2 h) it was 2500 ng/mL; in series [3] (5 h), 3200 ng/mL; in series [3] (8 h), 1500 ng/mL; in series [3] (12 h), 1100 ng/mL; in series [3] (24 h), 800 ng/mL.

In the case of `CCC(COC(=O)c1cc(OC)c(OC)c(OC)c1)(c1ccccc1)N(C)C` (stereo not shown) [Trimebutine, trimebutine], the Total drug released in series [1] (Ex. 5, coated reservoir, drug-loaded protective membrane, 1 h) is listed as 18 mg; in series [1] (Ex. 5, coated reservoir, drug-loaded protective membrane, 2 h), 30 mg; in series [1] (Ex. 5, coated reservoir, drug-loaded protective membrane, 3 h) it was 50 mg; in series [1] (Ex. 5, coated reservoir, drug-loaded protective membrane, 4 h), 67 mg; in series [1] (Ex. 5, coated reservoir, drug-loaded protective membrane, 5 h), 90 mg; in series [1] (Ex. 5, coated reservoir, drug-loaded protective membrane, 6 h), 103 mg. In addition, the Total drug released in series [1] (Ex. 5, uncoated solid matrix-type reservoir (140 mg), 30 min) was determined as 20 mg; in series [1] (Ex. 5, uncoated solid matrix-type reservoir (140 mg), 60 min) it was 64 mg; in series [1] (Ex. 5, uncoated solid matrix-type reservoir (140 mg), 90 min), 80 mg; in series [1] (Ex. 5, uncoated solid matrix-type reservoir (140 mg), 120 min) it was 105 mg; in series [1] (Ex. 6, coated reservoir, protective membrane loaded with 15 mg drug, 0.5 h), 22.5 mg; in series [1] (Ex. 6, coated reservoir, protective membrane loaded with 15 mg drug, 1 h) it was 45.0 mg. The Total drug released in series [1] (Ex. 6, coated reservoir, protective membrane loaded with 15 mg drug, 2 h) is 82.5 mg; in series [1] (Ex. 6, coated reservoir, protective membrane loaded with 15 mg drug, 3 h) it was 105.0 mg; in series [1] (Ex. 6, coated reservoir, protective membrane loaded with 15 mg drug, 4 h) it was 120.0 mg; in series [1] (Ex. 6, coated reservoir, protective membrane loaded with 15 mg drug, 5 h) it was 127.5 mg; in series [1] (Ex. 6, uncoated solid matrix-type reservoir (135 mg), 20 min) it was 47 mg; in series [1] (Ex. 6, uncoated solid matrix-type reservoir (135 mg), 40 min) it was 64.8 mg. In addition, the Total drug released in series [1] (Ex. 6, uncoated solid matrix-type reservoir (135 mg), 60 min) is given as 77.0 mg; in series [1] (Ex. 6, uncoated solid matrix-type reservoir (135 mg), 80 min), 87.8 mg; in series [1] (Ex. 6, uncoated solid matrix-type reservoir (135 mg), 100 min) it was 94.5 mg; in series [1] (Ex. 6, uncoated solid matrix-type reservoir (135 mg), 180 min) it was 115 mg.

Consider methisoprinol, for which the Total drug released in series [1] (Ex. 2, coated reservoir, no drug in protective membrane, 2 h) is reported as 115 mg; in series [1] (Ex. 2, coated reservoir, no drug in protective membrane, 3 h), 173 mg; in series [1] (Ex. 2, coated reservoir, no drug in protective membrane, 4 h) it was 223 mg; in series [1] (Ex. 2, coated reservoir, no drug in protective membrane, 6 h) it was 315 mg; in series [1] (Ex. 2, coated reservoir, no drug in protective membrane, 7 h), 357 mg; in series [1] (Ex. 2, uncoated solid matrix-type reservoir (500 mg), 30 min) it was 225 mg. Also, the Total drug released amounted to 312 mg in series [1] (Ex. 2, uncoated solid matrix-type reservoir (500 mg), 60 min); 365 mg in series [1] (Ex. 2, uncoated solid matrix-type reservoir (500 mg), 90 min); 405 mg in series [1] (Ex. 2, uncoated solid matrix-type reservoir (500 mg), 120 min); 53 mg in series [4] (1 h); 273 mg in series [4] (5 h).
